In US11964973B2 (priority 2019, dated 2024):
Like-named read-outs stand apart in the source and are kept apart here.

Columns and labels:
DGKα = DGKα (Homo sapiens (Human), UniProt P23743); test: biochemical; type: biochemical
[1] = test system: Human venous whole blood (IFN-γ); test: Human whole blood IFN-γ assay; type: cell-based
Procedure: Assay 10: Human Whole Blood IFN-γ Assay
Human venous whole blood (22.5 μL per well), obtained from healthy donors, was pre-treated with compounds for one hour at 37° C. in a humidified 95% air/5% CO2 incubator. The blood was stimulated with 2.5 μL anti-human CD3 and anti-CD28 mAb at a final concentration of 1 μg/mL each for 24 hours at 37° C. IFN-γ in the supernatants was measured using AlphLISA kit (Cat #AL217).

human DGKζ = human DGKζ (Homo sapiens (Human), UniProt Q13574); test: biochemical; type: biochemical
Sequence of human DGKζ (Q13574 whole entry, looked up): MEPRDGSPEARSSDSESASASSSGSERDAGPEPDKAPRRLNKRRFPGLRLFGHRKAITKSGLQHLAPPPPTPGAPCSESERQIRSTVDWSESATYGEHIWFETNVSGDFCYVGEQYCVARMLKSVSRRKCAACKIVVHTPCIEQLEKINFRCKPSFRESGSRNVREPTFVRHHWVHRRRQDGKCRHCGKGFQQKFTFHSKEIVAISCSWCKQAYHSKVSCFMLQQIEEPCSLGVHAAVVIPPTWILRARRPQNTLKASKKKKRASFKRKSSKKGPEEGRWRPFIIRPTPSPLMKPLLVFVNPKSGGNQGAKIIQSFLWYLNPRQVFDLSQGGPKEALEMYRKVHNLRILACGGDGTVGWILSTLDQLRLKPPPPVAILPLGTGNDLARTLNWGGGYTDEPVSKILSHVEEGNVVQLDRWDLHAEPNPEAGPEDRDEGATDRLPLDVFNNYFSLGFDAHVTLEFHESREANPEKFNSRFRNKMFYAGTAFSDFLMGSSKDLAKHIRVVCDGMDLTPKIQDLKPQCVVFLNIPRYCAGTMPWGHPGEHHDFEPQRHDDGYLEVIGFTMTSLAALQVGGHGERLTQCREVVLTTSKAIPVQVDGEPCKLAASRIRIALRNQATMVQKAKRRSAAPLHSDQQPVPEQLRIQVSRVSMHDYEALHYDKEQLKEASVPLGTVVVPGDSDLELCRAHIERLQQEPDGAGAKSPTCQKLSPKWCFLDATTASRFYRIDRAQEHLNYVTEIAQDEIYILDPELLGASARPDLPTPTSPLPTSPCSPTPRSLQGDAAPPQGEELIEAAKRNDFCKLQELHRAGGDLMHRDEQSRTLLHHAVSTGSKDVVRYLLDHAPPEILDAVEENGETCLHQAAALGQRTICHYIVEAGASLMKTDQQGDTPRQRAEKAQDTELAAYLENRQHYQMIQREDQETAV

[2] = Table A, liposome (LIPGLO) assay, read-out: DGKα
[3] = human whole blood IFN-γ, read-out: INFg Whole Blood
[4] = Table A, liposome (LIPGLO) assay, read-out: DGKζ
[5] = liposome (LIPGLO) assay, read-out: DGKα LIPGLO IC50
[6] = human whole blood, anti-CD3 plus anti-CD28, 24 hours, read-out: INFg Whole Blood Normalized Agonist EC50
[7] = liposome (LIPGLO) assay, read-out: DGKζ LIPGLO IC50
[8] = Homo sapiens, 24 h, human whole blood, anti-CD3 plus anti-CD28, 24 hours, read-out: INFg Whole Blood Normalized Agonist EC50

Sequence of DGKα (P23743 whole entry, looked up): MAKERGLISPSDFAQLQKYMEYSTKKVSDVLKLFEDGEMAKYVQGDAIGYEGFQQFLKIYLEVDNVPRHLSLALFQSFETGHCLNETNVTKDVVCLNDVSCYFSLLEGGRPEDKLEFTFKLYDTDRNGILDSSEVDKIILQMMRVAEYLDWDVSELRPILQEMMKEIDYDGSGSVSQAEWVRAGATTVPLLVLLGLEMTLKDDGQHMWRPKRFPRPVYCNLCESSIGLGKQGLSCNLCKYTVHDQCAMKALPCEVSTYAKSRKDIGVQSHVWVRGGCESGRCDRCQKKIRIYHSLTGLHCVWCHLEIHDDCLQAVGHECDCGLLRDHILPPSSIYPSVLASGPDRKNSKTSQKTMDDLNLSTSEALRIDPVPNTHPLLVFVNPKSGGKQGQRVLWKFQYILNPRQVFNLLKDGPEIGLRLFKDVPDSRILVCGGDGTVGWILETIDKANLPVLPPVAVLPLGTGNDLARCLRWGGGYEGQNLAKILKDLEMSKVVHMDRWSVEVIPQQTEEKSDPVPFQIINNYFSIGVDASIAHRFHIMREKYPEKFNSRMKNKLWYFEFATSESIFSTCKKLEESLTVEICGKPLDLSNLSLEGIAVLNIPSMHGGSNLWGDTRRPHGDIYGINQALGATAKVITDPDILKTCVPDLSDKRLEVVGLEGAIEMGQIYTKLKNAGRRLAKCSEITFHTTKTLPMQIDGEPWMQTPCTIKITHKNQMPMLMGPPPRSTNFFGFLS

SMILES	IC50 (DGKα; [5]) [µM]	IC50 (human DGKζ; [7]) [µM]	EC50 [1, 8] [µM]	also measured
C[C@@H]1CN(c2c(C#N)c(=O)n(C)c3ccc(C#N)nc23)CC[C@@H]1Oc1ccc(C(F)(F)F)cc1 [Example 191, 5-methyl-8-((3R,4S)-3-methyl-4-(4-(trifluoromethyl)phenoxy)piperidin-1-yl)-6-oxo-5,6-dihydro-1,5-naphthyridine-2,7-dicarbonitrile]				IC50 (DGKα; [2]): 1.8 µM; EC50 [1, 3]: 20 µM; IC50 (human DGKζ; [4]): 8.6 µM
C[C@@H]1CN(c2cc(=O)n(C)c3ccc(C#N)nc23)CC[C@H]1Oc1ccc(C2CCCC2)cc1 (single isomer, unassigned) [Example 101]	0.43	6.8		EC50 [1, 6]: 1.4 µM
Cc1cccc(O[C@@H]2CCN(c3c(C#N)c(=O)n(C)c4ccc(C#N)nc34)C[C@H]2C)c1 [Example 136, 5-methyl-8-((3R,4R)-3-methyl-4-(m-tolyloxy)piperidin-1-yl)-6-oxo-5,6-dihydro-1,5-naphthyridine-2,7-dicarbonitrile]		≥ 250	20	IC50 (DGKα; DGKα LIPGLO IC50): 0.81 µM
CCCCc1ccc(OC2CCN(c3cc(=O)n(C)c4ccc(C#N)nc34)CC2)cc1 [Example 56, 8-(4-(4-butylphenoxy)piperidin-1-yl)-5-methyl-6-oxo-5,6-dihydro-1,5-naphthyridine-2-carbonitrile]	0.84	13	3.8	
CCC(C)(C)c1ccc(O[C@H]2CCN(c3cc(=O)n(C)c4ccc(C#N)nc34)C[C@H]2C)cc1 [Example 169, 5-methyl-8-((3R,4S)-3-methyl-4-(4-(tert-pentyl)phenoxy)piperidin-1-yl)-6-oxo-5,6-dihydro-1,5-naphthyridine-2-carbonitrile]			1.7	IC50 (DGKα; read-out: DGKα LIPGLO IC50): 0.6 µM; IC50 (human DGKζ; read-out: DGKζ LIPGLO IC50): 1.4 µM
Cn1c(=O)cc(N2CCC(Oc3nccc4cccnc34)CC2)c2nc(C#N)ccc21 [Example 74, 8-(4-((1,7-naphthyridin-8-yl)oxy)piperidin-1-yl)-5-methyl-6-oxo-5,6-dihydro-1,5-naphthyridine-2-carbonitrile]	2.8	3.3	20	
Cn1c(=O)cc(N2CCC(Oc3ncnc4ccccc34)CC2)c2nc(C#N)ccc21 [Example 71, 5-methyl-6-oxo-8-(4-(quinazolin-4-yloxy)piperidin-1-yl)-5,6-dihydro-1,5-naphthyridine-2-carbonitrile]	2.3	3	20	
CC[C@@H]1CN(c2cc(=O)n(C)c3ccc(C#N)nc23)CC[C@H]1Oc1cccc(C(C)(C)C)c1 (single isomer, unassigned) [Example 198]				IC50 (DGKα; [2]): 0.16 µM; EC50 ([1]; read-out: INFg Whole Blood, human whole blood IFN-γ): 3.1 µM; IC50 (human DGKζ; [4]): 1.3 µM
C[C@@H]1CN(c2cc(=O)n(C)c3ccc(C#N)nc23)CC[C@H]1Oc1cccc(C2CC2)c1 (single isomer, unassigned) [Example 93]	0.3	18		EC50 [1, 6]: 5.9 µM
C[C@@H]1CN(c2cc(=O)n(C)c3ccc(C#N)nc23)CC[C@H]1Oc1ccc(F)cc1C(F)(F)F (single isomer, unassigned) [Example 118]	0.25	52		EC50 [1, 6]: 4.7 µM
C[C@@H]1CN(c2cc(=O)n(C)c3ccc(C#N)nc23)CC[C@H]1Oc1ccc(F)cc1C(F)(F)F [Example 116, 8-((3R,4R)-4-(4-fluoro-2-(trifluoromethyl)phenoxy)-3-methylpiperidin-1-yl)-5-methyl-6-oxo-5,6-dihydro-1,5-naphthyridine-2-carbonitrile]	0.45	13	4.7	
CC(C)c1ccc(O[C@@H]2CCN(c3cc(=O)n(C)c4ccc(C#N)nc34)C[C@H]2C)cc1 (single isomer, unassigned) [Example 95]	0.4	5		EC50 [1, 6]: 1 µM
Cn1c(=O)cc(N2CCC(Oc3ccc(Cl)cn3)CC2)c2nc(C#N)ccc21 [Example 67, 8-(4-((5-chloropyridin-2-yl)oxy)piperidin-1-yl)-5-methyl-6-oxo-5,6-dihydro-1,5-naphthyridine-2-carbonitrile]	1.6	7.1	2.7	
Cn1c(=O)cc(N2CCC(Oc3ccc(C4CC4)cc3)CC2)c2nc(C#N)ccc21 [Example 59, 8-(4-(4-cyclopropylphenoxy)piperidin-1-yl)-5-methyl-6-oxo-5,6-dihydro-1,5-naphthyridine-2-carbonitrile]	1	3.7	6.4	
Cn1c(=O)cc(N2CCC(Oc3ccc(Cc4ccccc4)cc3)CC2)c2nc(C#N)ccc21 [Example 55, 8-(4-(4-benzylphenoxy)piperidin-1-yl)-5-methyl-6-oxo-5,6-dihydro-1,5-naphthyridine-2-carbonitrile]	0.95	3.8	3.7	
Cn1c(=O)cc(N2CCC(Oc3ccc(OC(C)(C)C)cc3)CC2)c2nc(C#N)ccc21 [Example 65, 8-(4-(4-(tert-butoxy)phenoxy)piperidin-1-yl)-5-methyl-6-oxo-5,6-dihydro-1,5-naphthyridine-2-carbonitrile]	0.56	3.3	6.8	
CCC(C)(C)c1ccc(O[C@H]2CCN(c3cc(=O)n(C)c4ccc(C#N)nc34)C[C@H]2C)cc1 (single isomer, unassigned) [Example 171]				IC50 (DGKα; read-out: DGKα LIPGLO IC50): 1.4 µM; EC50 [1, 6]: 3 µM; IC50 (human DGKζ; read-out: DGKζ LIPGLO IC50): 3.7 µM
CCC(C)(C)c1ccc(O[C@@H]2CCN(c3cc(=O)n(C)c4ccc(C#N)nc34)C[C@H]2C)cc1 (single isomer, unassigned) [Example 84]	0.048	23		EC50 [1, 6]: 1.2 µM
Cc1ccc(O[C@@H]2CCN(c3cc(=O)n(C)c4ccc(C#N)nc34)C[C@H]2C)cc1 (single isomer, unassigned) [Example 120]	0.35	73	4.7	
CC(C)c1ccc(O[C@H]2CCN(c3cc(=O)n(C)c4ccc(C#N)nc34)C[C@H]2C)cc1 (single isomer, unassigned) [Example 177]	0.14	1.1	3.5	
C[C@@H]1CN(c2cc(=O)n(C)c3ccc(C#N)nc23)CC[C@H]1Oc1ccc(F)cc1C(F)(F)F (single isomer, unassigned) [Example 117]	2	20	4.6	
C[C@@H]1CN(c2c(C#N)c(=O)n(C)c3ccc(C#N)nc23)CC[C@@H]1Oc1ccc(C(F)(F)F)cc1 [Example 190, 5-methyl-8-((3R,4S)-3-methyl-4-(4-(trifluoromethyl)phenoxy)piperidin-1-yl)-6-oxo-5,6-dihydro-1,5-naphthyridine-2,7-dicarbonitrile]				IC50 (DGKα; [2]): 2.2 µM; EC50 [1, 3]: 20 µM; IC50 (human DGKζ; [4]): 3.1 µM
C[C@@H]1CN(c2cc(=O)n(C)c3ccc(C#N)nc23)CC[C@H]1Oc1ccc(C2CCCC2)cc1 [Example 100, 8-((3R,4R)-4-(4-cyclopentylphenoxy)-3-methylpiperidin-1-yl)-5-methyl-6-oxo-5,6-dihydro-1,5-naphthyridine-2-carbonitrile]	0.11	28	2.7	
Cc1ccc(O[C@@H]2CCN(c3cc(=O)n(C)c4ccc(C#N)nc34)C[C@H]2C)cc1 [Example 119, 5-methyl-8-((3R,4R)-3-methyl-4-(p-tolyloxy)piperidin-1-yl)-6-oxo-5,6-dihydro-1,5-naphthyridine-2-carbonitrile]	0.24	20	6.6	
COc1cc(OC2CCN(c3cc(=O)n(C)c4ccc(C#N)nc34)CC2)nc2cc(Cl)ccc12 [Example 73, 8-(4-((7-chloro-4-methoxyquinolin-2-yl)oxy)piperidin-1-yl)-5-methyl-6-oxo-5,6-dihydro-1,5-naphthyridine-2-carbonitrile]	2.2	8.3	20	
CCCCCc1ccc(OC2CCN(c3cc(=O)n(C)c4ccc(C#N)nc34)CC2)cc1 [Example 62, 5-methyl-6-oxo-8-(4-(4-pentylphenoxy)piperidin-1-yl)-5,6-dihydro-1,5-naphthyridine-2-carbonitrile]	1.5	5.2	20	
CC(C)c1ccc(O[C@H]2CCN(c3cc(=O)n(C)c4ccc(C#N)nc34)C[C@H]2C)cc1 [Example 176, 8-((3R,4S)-4-(4-isopropylphenoxy)-3-methylpiperidin-1-yl)-5-methyl-6-oxo-5,6-dihydro-1,5-naphthyridine-2-carbonitrile]	0.041	1.3	2.3	
CC[C@@H]1CN(c2cc(=O)n(C)c3ccc(C#N)nc23)CC[C@H]1Oc1cccc(C(F)(F)F)c1 (single isomer, unassigned) [Example 141]	0.068	0.26		EC50 [1, 6]: 0.5 µM
CC(C)c1ccc(O[C@H]2CCN(c3cc(=O)n(C)c4ccc(C#N)nc34)C[C@H]2C)cc1 (single isomer, unassigned) [Example 183]				IC50 (DGKα; [2]): 0.71 µM; EC50 ([1]; Homo sapiens, human whole blood IFN-γ, read-out: INFg Whole Blood): 2.6 µM; IC50 (human DGKζ; [4]): 0.94 µM
C[C@@H]1CN(c2cc(=O)n(C)c3ccc(C#N)nc23)CC[C@H]1Oc1c(F)cc(F)cc1F [Example 131, 5-methyl-8-((3R,4R)-3-methyl-4-(2,4,6-trifluorophenoxy)piperidin-1-yl)-6-oxo-5,6-dihydro-1,5-naphthyridine-2-carbonitrile]	3.1	≥ 250		
